Assay results reported in patent US12162934B2, “Gremlin-1 antagonist for the prevention and treatment of cancer” (UCB BIOPHARMA SRL, priority 2018, dated 2024).

Tests used:
rhGrem1 = target: T1, rhGrem1 (Homo sapiens, UniProt O60565); test: Western blot of Smad1/5/9 phosphorylation in murine 4T1 breast cancer cells; type: cell-based, mouse; details: 10 ng/ml BMP2, 100 ng/ml rhGrem1 pre-incubated with antibody; vs isotype control
T1 sequence (O60565 25-184): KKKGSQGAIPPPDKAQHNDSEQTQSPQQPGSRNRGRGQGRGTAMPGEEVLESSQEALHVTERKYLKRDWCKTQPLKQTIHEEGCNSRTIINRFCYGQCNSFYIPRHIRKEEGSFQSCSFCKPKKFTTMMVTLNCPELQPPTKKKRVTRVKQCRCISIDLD
Method: Murine 4T1 BrCa cells were seeded into 6-well plates and cultured until 80% confluent. Cells were starved in serum-free medium overnight, and then stimulated with indicated treatments for 2 hrs. Cell lysates were prepared and equivalent amounts of protein (50 μg) were separated on 10% sodium dodecyl sulphate-polyacrylamide gel electrophoresis (SDS-PAGE) gels and transferred to nitrocellulose membranes. Immunoblotting was performed with phospho-Smad1/5/9 antibodies (cell signalling technologies, 1:1000 dilution). Equal loading of protein samples was confirmed by blotting membranes with antibodies against β-actin (Sigma Aldrich, 1:2500 dilution). Proteins were visualised using the Odyssey Infrared Imaging System (LI-COR Bioscience, Lincoln, NE, USA).
As Grem1 is a known BMP-2/4/7 antagonist, we assessed the ability of UCB antibody Ab7326 to inhibit Grem1-induced inhibition of Smad1/5/9 phosphorylation via western blot analysis. Murine 4T1 breast cancer cells exposed to 10 ng/ml BMP2 which led to Smad1/5/9 phosphorylation. Co-incubation with 100 ng/ml rhGrem1 inhibited this BMP2-mediated Smad1/5/9 phosphorylation.

human Gremlin = target: T2, human Gremlin (Homo sapiens, UniProt O60565); test: Hek-Id1 reporter gene assay: anti-Gremlin-1 antibodies restoring BMP signalling blocked by human Gremlin; type: cell-based; details: 10-fold excess and 80% inhibition Gremlin-1 concentration
T2 sequence (O60565 25-184): T1 sequence (O60565 25-184)
Source text: The Hek Id1 reporter gene assay uses Clone 12 Hek293-Id1 reporter cells. This cell line was stably transfected with Id1 transcription factor. Id1 is a transcription factor in the BMP signalling pathway. Gremlin is known to bind BMPs prevent binding to their receptors reducing the luciferase signal from the reporter gene. Therefore, using this reporter assay, it is possible to screen anti-Gremlin antibodies and see if there are any that block the interaction of Gremlin with BMPs. A restoration of the luciferase signal is seen in these cells if there is a blocking of this interaction.
Clone 12 cells were cultured in DMEM containing 10% FCS, 1× L-Glutamine & 1× NEAA. […]
The cells were washed in PBS, lifted off using cell dissociation buffer, spun and counted before being seeded at 5×10^4/well in 70 μl (Density of 7.14×10^5/ml). […]
Post incubation, 30 μl of sample was transferred per well of assay plate and incubated for 20-24 hours before measuring luminescence signal.
Cell Steady Glo was thawed in advance at room temperature. […] Luciferase signal was detected by addition of cell steady glo reagent (100 μl) for 20 minutes on shaker at room temperature and measuring luminescence using cell titre glo protocol on Synergy 2. […]
The percentage of inhibition from dose response assays was calculated based on the maximum and minimum signals in the assay and the data fitted using 4 parameter logistical fit. […]

[1] = target: T3, BMP-2-Gremlin-1 complexes (Homo sapiens, UniProt O60565); test: SMAD phosphorylation assay: displacement of BMP-2 from Gremlin 1-BMP complexes; type: cell-based; details: for Displacement of BMP-2 from Gremlin 1-BMP complexes (SMAD phosphorylation): BMP 2 50 ng/ml
T3 sequence (O60565 25-184): T1 sequence (O60565 25-184)
Method: Experiments were again performed using lung fibroblasts from idiopathic pulmonary fibrosis patients. rhBMP-2 or rhBMP 4/7 were preincubated with rhGremlin-1 for 1 hour at room temperature. The BMP-2- or BMP4/7-Gremlin-1 complexes were incubated with different concentrations of the anti-Gremlin-1 antibodies overnight at 4° C. Antibody concentrations represent the final concentration on the plate.

Vil1-Grem1 mice = test: Vil1-Grem1 mouse polyposis model (phenotype, survival); details: for median survival: vehicle 242 days
Apc^Min mice = test: Apc^Min mouse polyposis model (survival); type: in vivo; details: for median survival: vehicle 192 days
Vil1-Grem1;Apc^Min mice = test: Vil1-Grem1;Apc^Min mouse polyposis model (survival); type: in vivo
[2] = early stage treatment (42 days), 30 mg/kg weekly
[3] = late-stage treatment (120 days), 30 mg/kg weekly

Ab7326: allosteric inhibitory anti-Gremlin-1 antibody from a naïve human library; CDRs SEQ ID NOS 4 to 9; mouse IgG1 in mouse experiments
Smad1/5/9 phosphorylation in 4T1 cells (rhGrem1): partially restored
Blocking ability in the Hek-Id1 reporter gene assay (human Gremlin): maintained blocking ability
Displacement of BMP-2 from Gremlin 1-BMP complexes (SMAD phosphorylation) ([1]; antibody 0.63 μg/ml): 97.0%
Displacement of BMP-2 from Gremlin 1-BMP complexes (SMAD phosphorylation) ([1]; antibody 1.27 μg/ml): 102.8%
Displacement of BMP-2 from Gremlin 1-BMP complexes (SMAD phosphorylation) ([1]; antibody 2.55 μg/ml): 103.2%
Displacement of BMP-2 from Gremlin 1-BMP complexes (SMAD phosphorylation) ([1]; antibody 5.1 μg/ml): 100.3%
Displacement of BMP-2 from Gremlin 1-BMP complexes (SMAD phosphorylation) ([1]; antibody 10.2 μg/ml): 103.8%
Displacement of BMP-2 from Gremlin 1-BMP complexes (SMAD phosphorylation) ([1]; antibody 20.3 μg/ml): 99.4%
Displacement of BMP-2 from Gremlin 1-BMP complexes (SMAD phosphorylation) ([1]; antibody 40.6 μg/ml): 101.5%
Displacement of BMP-2 from Gremlin 1-BMP complexes (SMAD phosphorylation) ([1]; antibody 81.3 μg/ml): 103.7%
Displacement of already complexed BMP from Gremlin 1-BMP complexes ([1]; BMP-2 or BMP4/7, at much lower concentrations than comparison antibody 2484): can displace already complexed BMP-2 or BMP4/7
Villus ectopic crypt formation and cell fate determination (immunohistochemical staining) (Vil1-Grem1 mice; 30 mg/kg twice weekly for 6 weeks): reversal of villus ectopic crypt formation and deranged cell fate determination
Pan-intestinal polyposis phenotype (Vil1-Grem1 mice; 30 mg/kg twice weekly subcutaneous for 6 weeks): highly significant abrogation
Animal lifespan (Vil1-Grem1 mice; 30 mg/kg weekly subcutaneous from 6 weeks of age, prolonged dosing): significantly prolongs animal lifespan
Adverse events (Vil1-Grem1 mice; Grem1 initiated polyposis models, animals treated for more than 400 days): No consistent adverse events have been observed
median survival (Vil1-Grem1 mice; [2]): 540 days
median survival (Vil1-Grem1 mice; established polyposis, 30 mg/kg weekly from 5 months): 477 days
Vil1-Grem1 intestinal phenotype at timed sacrifice (Vil1-Grem1 mice; established polyposis, over 4 weeks of treatment): reversion of the Vil1-Grem1 intestinal phenotype
median survival (Vil1-Grem1 mice; [3]): 519 days
median survival (Apc^Min mice; [2]): 424.5 days
median survival (Apc^Min mice; established polyposis, 30 mg/kg weekly from 4 months): 264.5 days
median survival (Apc^Min mice; [3]): 261 days
Survival / polyp development (Apc^Min mice; long term treatment initiated at 6 weeks of age): prolonged survival
median survival (Vil1-Grem1;Apc^Min mice; 15 mg/kg weekly, from 21 days of age, vehicle 45 days): 76.5 days
mean lifespan (Vil1-Grem1;Apc^Min mice; 30 mg/kg twice weekly from 3 weeks of age, untreated VG-min 46 days): 108 days
median survival (Vil1-Grem1;Apc^Min mice; 30 mg/kg weekly, from 21 days of age, ongoing experiment): 108 days
median survival (Vil1-Grem1;Apc^Min mice; 60 mg/kg weekly, from 21 days of age, ongoing experiment): 111 days
median survival (Vil1-Grem1;Apc^Min mice; late stage: treatment at or from the age of 35 days, antibody 30 mg/kg weekly, 5FU two i.p. daily doses of 40 mg/kg, no treatment 45 days): 49.5 days
